Among the data in ChEMBL document CHEMBL4024724, “Synthesis of new 3-(2-mercapto-4-oxo-4H-quinazolin-3-yl)-benzenesulfonamides with strong inhibition properties against the tumor associated carbonic anhydrases IX and XII” (Bioorg Med Chem, 2017) are Ki values, retold here.

The structures appear in SMILES notation.

The test deals with Carbonic anhydrase 9 (Homo sapiens, UniProt Q16790). The experiment in a line: Inhibition of recombinant human carbonic anhydrase 9 incubated for 15 mins prior to testing by stopped flow CO2 hydration assay.
Consider `NS(=O)(=O)c1cccc(-n2c(S)nc3ccccc3c2=O)c1`, for which the inhibition constant Ki is 76.1 nM.

Take `NS(=O)(=O)c1cccc(-n2c(S)nc3c(Cl)cccc3c2=O)c1`: the Ki was found to be 9.5 nM.

Consider `Cc1ccc2nc(S)n(-c3cccc(S(N)(=O)=O)c3)c(=O)c2c1`, for which the Ki was 58.9 nM.

On to `Cc1cccc2c(=O)n(-c3cccc(S(N)(=O)=O)c3)c(S)nc12`, for which the Ki was 25.2 nM.

Regarding `COc1cccc2c(=O)n(-c3cccc(S(N)(=O)=O)c3)c(S)nc12`, the Ki turned out to be 15.6 nM.

For `COc1cc2nc(S)n(-c3cccc(S(N)(=O)=O)c3)c(=O)c2cc1OC`, the inhibitory constant (Ki) was found to be 19.8 nM.

With `NS(=O)(=O)c1cccc(-n2c(S)nc3cc(Cl)ccc3c2=O)c1`, the inhibition constant Ki amounted to 15.4 nM.

Take `Cc1cc2nc(S)n(-c3cccc(S(N)(=O)=O)c3)c(=O)c2cc1C`: the Ki turned out to be 34.5 nM.

For `NS(=O)(=O)c1cccc(-n2c(S)nc3cc(Br)ccc3c2=O)c1`, the Ki was found to be 16.8 nM.

For the compound `COc1ccc2nc(S)n(-c3cccc(S(N)(=O)=O)c3)c(=O)c2c1`, the inhibition constant Ki was determined as 13 nM.

In the case of `NS(=O)(=O)c1cccc(-n2c(S)nc3ccc(F)cc3c2=O)c1`, the Ki stood at 4.4 nM.

On to `NS(=O)(=O)c1cccc(-n2c(S)nc3cc(F)ccc3c2=O)c1`, for which the Ki came to 2.7 nM.

In the case of `NS(=O)(=O)c1cccc(-n2c(S)nc3ccc(I)cc3c2=O)c1`, the Ki is 1.5 nM.

Regarding `COc1cc2c(=O)n(-c3cccc(S(N)(=O)=O)c3)c(S)nc2c(OC)c1OC`, the inhibition constant Ki came out at 20.1 nM.

With `COc1ccc2c(=O)n(-c3cccc(S(N)(=O)=O)c3)c(S)nc2c1`, the Ki turned out to be 25 nM.

For the compound `NS(=O)(=O)c1cccc(-n2c(S)nc3ccc(Cl)cc3c2=O)c1`, the Ki is 45.1 nM.

On to `NS(=O)(=O)c1cccc(-n2c(S)nc3c(Br)cccc3c2=O)c1`, for which the Ki worked out at 4 nM.

For orientation: Ki means the equilibrium dissociation constant of an inhibitor or competing ligand from its target.
